This passage reports inhibition and IC50 results from publication PMC11597050, “Virtual Screening, Molecular Dynamics, and Mechanism Study of Homeodomain-Interacting Protein Kinase 2 Inhibitor in Renal Fibroblasts” (Pharmaceuticals, 2024).

Holding throughout (type): biochemical
One test addresses HIPK3 (Homo sapiens, UniProt Q9H422). The experiment in a line: kinase inhibition assay, percent inhibition at […].
For test [1], the target named is T1, HIPK2 (Homo sapiens, UniProt Q9H2X6). The experiment in a line: ADP-Glo kinase assay (positive control drug). Conditions: read-out: IC50 ± SEM (μM) / HIPK2. (In ADP-Glo the light output rises with the ADP produced.)
T1 sequence (Q9H2X6 whole entry): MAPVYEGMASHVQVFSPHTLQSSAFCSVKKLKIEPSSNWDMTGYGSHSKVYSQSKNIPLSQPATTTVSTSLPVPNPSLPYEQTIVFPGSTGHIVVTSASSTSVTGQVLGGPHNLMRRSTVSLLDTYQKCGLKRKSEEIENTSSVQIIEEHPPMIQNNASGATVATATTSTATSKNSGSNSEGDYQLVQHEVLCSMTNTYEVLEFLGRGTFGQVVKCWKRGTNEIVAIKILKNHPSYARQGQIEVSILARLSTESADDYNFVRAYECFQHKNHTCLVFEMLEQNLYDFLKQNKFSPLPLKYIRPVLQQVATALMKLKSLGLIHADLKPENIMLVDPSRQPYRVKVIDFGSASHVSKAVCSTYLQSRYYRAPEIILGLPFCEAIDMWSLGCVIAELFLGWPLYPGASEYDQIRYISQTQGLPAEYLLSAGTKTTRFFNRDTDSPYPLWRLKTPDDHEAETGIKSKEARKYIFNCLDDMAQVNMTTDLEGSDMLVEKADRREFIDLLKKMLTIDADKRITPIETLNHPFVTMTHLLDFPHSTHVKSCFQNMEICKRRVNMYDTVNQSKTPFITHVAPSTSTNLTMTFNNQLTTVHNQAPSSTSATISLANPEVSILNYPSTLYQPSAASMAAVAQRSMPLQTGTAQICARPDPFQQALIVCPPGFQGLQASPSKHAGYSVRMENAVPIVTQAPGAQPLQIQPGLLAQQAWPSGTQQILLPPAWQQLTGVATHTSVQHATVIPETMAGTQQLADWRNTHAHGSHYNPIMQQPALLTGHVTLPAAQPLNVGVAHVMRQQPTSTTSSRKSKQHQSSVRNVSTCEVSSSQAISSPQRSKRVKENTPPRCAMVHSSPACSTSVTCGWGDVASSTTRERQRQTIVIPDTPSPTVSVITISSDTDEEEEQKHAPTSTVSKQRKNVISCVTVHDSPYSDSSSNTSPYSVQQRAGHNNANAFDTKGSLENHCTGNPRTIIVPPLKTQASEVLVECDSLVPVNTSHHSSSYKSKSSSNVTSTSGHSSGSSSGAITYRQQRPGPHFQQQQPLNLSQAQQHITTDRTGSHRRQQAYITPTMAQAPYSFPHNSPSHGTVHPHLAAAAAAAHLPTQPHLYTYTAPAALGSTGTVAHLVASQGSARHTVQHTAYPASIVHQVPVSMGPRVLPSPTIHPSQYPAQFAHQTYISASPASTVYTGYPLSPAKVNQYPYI
Test [2] concerns the target T1, HIPK2. The experiment in a line: ADP-Glo kinase assay (MBP substrate). Particulars: read-out: IC50 ± SEM (μM) / HIPK2.

HIPK3, sequence (Q9H422 whole entry): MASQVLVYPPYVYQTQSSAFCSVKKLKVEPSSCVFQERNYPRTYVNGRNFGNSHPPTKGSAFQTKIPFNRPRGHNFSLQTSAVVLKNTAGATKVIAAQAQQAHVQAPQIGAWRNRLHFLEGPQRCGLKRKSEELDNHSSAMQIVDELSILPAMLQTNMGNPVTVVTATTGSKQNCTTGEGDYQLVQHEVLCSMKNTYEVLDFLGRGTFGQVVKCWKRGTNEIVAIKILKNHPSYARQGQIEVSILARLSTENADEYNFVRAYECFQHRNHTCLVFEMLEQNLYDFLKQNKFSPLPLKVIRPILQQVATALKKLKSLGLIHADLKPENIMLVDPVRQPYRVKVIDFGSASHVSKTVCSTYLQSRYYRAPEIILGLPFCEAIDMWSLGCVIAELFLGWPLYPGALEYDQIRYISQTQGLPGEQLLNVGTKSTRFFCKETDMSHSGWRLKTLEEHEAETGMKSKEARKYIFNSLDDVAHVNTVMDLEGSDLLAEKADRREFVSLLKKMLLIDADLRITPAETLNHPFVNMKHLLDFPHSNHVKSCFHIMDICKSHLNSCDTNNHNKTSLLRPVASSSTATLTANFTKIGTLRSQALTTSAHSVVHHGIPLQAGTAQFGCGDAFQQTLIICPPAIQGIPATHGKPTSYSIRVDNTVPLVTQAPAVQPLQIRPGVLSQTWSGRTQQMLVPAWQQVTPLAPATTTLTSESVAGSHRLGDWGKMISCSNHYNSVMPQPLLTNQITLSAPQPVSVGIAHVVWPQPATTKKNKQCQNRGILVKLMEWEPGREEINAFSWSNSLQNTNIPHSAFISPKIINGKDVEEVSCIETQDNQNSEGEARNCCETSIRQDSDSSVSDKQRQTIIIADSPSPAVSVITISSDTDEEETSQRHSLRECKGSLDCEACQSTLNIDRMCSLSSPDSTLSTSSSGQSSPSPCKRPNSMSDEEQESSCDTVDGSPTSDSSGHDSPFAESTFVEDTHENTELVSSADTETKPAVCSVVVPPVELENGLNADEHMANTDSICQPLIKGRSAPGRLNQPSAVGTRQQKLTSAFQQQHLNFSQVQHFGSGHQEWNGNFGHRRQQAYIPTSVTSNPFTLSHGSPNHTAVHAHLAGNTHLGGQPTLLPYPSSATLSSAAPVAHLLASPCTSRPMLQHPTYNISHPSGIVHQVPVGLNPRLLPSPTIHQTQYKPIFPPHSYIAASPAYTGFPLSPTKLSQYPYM

As to `CCN1CCN(Cc2ccc(Nc3ncc(F)c(-c4cc(F)c5nc(C)n(C(C)C)c5c4)n3)nc2)CC1` [Abemaciclib], at HIPK3, the inhibition (in general, the change of the read-out against control, counted positive when it falls) at 10 µM was > 90%. In addition, the IC50 at HIPK2 [1] was found to be 0.45 ± 0.12 µM. On to `CCCNc1ccc2ncc(-c3ccc4[nH]ncc4c3)n2n1` [T9521, 3-(1H-indazol-5-yl)-N-propylimidazo[1,2-b]pyridazin-6-amine], for which the IC50 on HIPK2 [2] was determined as 0.97 ± 0.04 µM. Same read-out and setting: for `O=C1Nc2ccc3ncsc3c2/C1=C/c1c[nH]cn1` [T16550] the value was 3.58 ± 0.06 µM.
